# Results from PubChem BioAssay AID463206 (Broad Institute, 2010).
# The source made the active and inactive calls.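 The calls were made as follows: active = caspase luminescence falls with dose and the half-maximal concentration AC50 from the fitted curve is at or below a set limit; inconclusive = flat fit at 30 to 70% signal loss, or invalid fit; inactive = AC50 above the limit, or signal rises instead.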
# Tested on: INS-1E cytokine-induced caspase-3/7, Caspase-Glo luminescence, 48 h
# Test: suppression of cytokine-driven beta-cell apoptosis – INS-1E rat cells, luminescence, orthogonal assay for beta-cell apoptosis protection project, dose response (AID 463206)
row,SMILES,AC50
1,C#CCOCCOCCOCCNc1nc(N2CCN(C(=O)CCCCCCCCCCNC(=O)[C@H]([C@@H](C)CC)n3cc(CCCCN=C(N)N)nn3)CC2)nc(N2CCN(C(=O)CCCCCCCCCCNC(=O)[C@H](CCCCN)n3cc(C)nn3)CC2)n1,> 26 µM (inactive)
2,O=[N+]([O-])c1ccc(-[n+]2ccc3ccccc3c2)c([N+](=O)[O-])c1,> 26 µM (inactive)
3,Oc1ccc(/C=N/Nc2ncc(Br)cn2)c(O)c1,> 26 µM (inactive)
4,COc1cc(NC(=O)COc2cc(O)c3c(c2)OC(C)(C)CC3=O)cc(OC)c1OC,> 26 µM (inactive)
5,C#CCN(C(=O)c1cc(COc2cccc(C(F)(F)F)c2)on1)C1CCCCC1,> 26 µM (inactive)
6,c1ccc(CN2CCN(Cc3c[nH]c4ccccc34)CC2)cc1,> 26 µM (inactive)
7,Cc1ccc(C)c(NC(=O)/C(C#N)=C/c2cn(CC(=O)NCc3ccco3)c3ccccc23)c1,> 26 µM (inactive)
8,CN1/C(=C\C(=O)C[n+]2ccc(C(=O)c3ccccc3)cc2)C(C)(C)c2ccccc21,> 26 µM (inactive)
9,CC(=O)NC(c1ccc(C(C)C)cc1)c1ccc2cccnc2c1O (centres undefined),> 26 µM (inactive)
10,CCOC(=O)N1CCN(S(=O)(=O)c2ccc(C(=O)NNc3nc4ccc(Cl)cc4s3)cc2)CC1,> 26 µM (inactive)
11,CCCC[n+]1ccn(C2=C([O-])c3ccccc3C(=O)/C2=N\S(=O)(=O)c2ccc(Cl)cc2)c1,> 26 µM (inactive)
12,FC(F)Sc1ccc(N=C2NN=C(c3ccc4c(c3)OCCO4)CS2)cc1,> 26 µM (inactive)
13,CCSCCc1nnc(NC(=O)Nc2cccc(C(F)(F)F)c2)s1,> 26 µM (inactive)
14,CS(=O)(=O)N(CC(=O)Nc1ccc(CC#N)cc1)c1ccc(C23CC4CC(CC(C4)C2)C3)cc1,> 26 µM (inactive)
15,Cc1cc(N)c2cc(NC(=O)/C=C/c3ccccc3Cl)ccc2n1,23 µM
16,Cc1oc2c(c1C(=O)N1CCOCC1)C(=O)c1ccccc1C2=O,> 26 µM (inactive)
17,N#CC(c1cccc(Cl)c1)c1ccc2c(C(F)(F)F)cc(C(F)(F)F)nc2n1 (centres undefined),> 26 µM (inactive)
18,COC(=O)C1CCN(C(=O)c2cc(-c3ccc(Cl)s3)nc3ccccc23)CC1,> 26 µM (inactive)
19,O=C(Oc1c(CN2CCOCC2)cc(Cl)c2cccnc12)c1cccs1,> 26 µM (inactive)
20,CN(C)C1=NC[C@H](Cc2ccccc2)N1CCCC1CCCCC1,> 26 µM (inactive)
21,CN1CCN(c2ccc(CNS(=O)(=O)Cc3cccc(C(F)(F)F)c3)cc2)CC1,> 26 µM (inactive)
22,CC(C)Nc1ccc(Nc2ccnc3cc4ccccc4cc23)cc1,3.23 µM
23,COc1nc(Nc2nc3ccccc3c(=O)[nH]2)nc2ccc(C)cc12,> 26 µM (inactive)

row,SMILES,AC50
1,O=C(Nc1ccc(C(F)(F)F)cc1)C1CCN(S(=O)(=O)c2ccc(N3CCCC3=O)cc2)CC1,> 26 µM (inactive)
2,COCCC1CCCCN1C(=O)c1cc(COc2ccc(-n3cncn3)cc2)on1 (centres undefined),> 26 µM (inactive)
3,Cc1cc(N2CCOCC2)n2ncc(-c3ccccc3)c2n1,> 26 µM (inactive)
4,Fc1ccccc1/C=N/Nc1nc(-c2ccccn2)nc2ccccc12,> 26 µM (inactive)
5,Cc1ccc(/C=N/NC(=O)c2c(-c3ccccc3)noc2C)c(O)c1,> 26 µM (inactive)
6,Nc1c(C(=O)Nc2ccc(S(=O)(=O)N3CCCC3)cc2)sc2nc3cc4c(cc3cc12)CCC4,> 26 µM (inactive)
7,CCCCCc1ccc(-c2cn(CN3C(=O)c4ccccc4C3=O)nn2)cc1,> 26 µM (inactive)
8,Fc1ccc(Oc2nc(-c3ccccn3)nc3ccccc23)cc1,> 26 µM (inactive)
9,CC(=O)/C=C/n1c(=S)oc2ccccc21,> 26 µM (inactive)
10,CC(=O)Oc1c(Cl)cc(N(C(C)=O)S(=O)(=O)c2ccccc2)c2ccccc12,> 26 µM (inactive)
11,Cc1cccc(OCc2n(CC(=O)OC3CC(C)CCC3C(C)C)c3ccccc3[n+]2C)c1 (centres undefined),> 26 µM (inactive)
12,CC(C)COCc1ccc(O)c2ncccc12,> 26 µM (inactive)
13,Cc1ccc(NC(=O)CCC(=O)N/N=C/c2ccc([N+](=O)[O-])o2)cc1C,> 26 µM (inactive)
14,CCCOc1nc2c(c(=O)n(C)c(=O)n2C)n1Cc1cccc2ccccc12,> 26 µM (inactive)
15,C#CCOCCOCCOCCNc1nc(N2CCN(C(=O)CCCCCCCCCCNC(=O)[C@H](CCCCN)n3cc(C[C@@H](C)CC)nn3)CC2)nc(N2CCN(C(=O)CCCCCCCCCCNC(=O)[C@@H]([C@H](C)O)n3cc(C)nn3)CC2)n1,> 26 µM (inactive)
16,C=C1C(=O)O[C@H]2C[C@@H](C)[C@@H]3C=CC(=O)[C@@]3(C)C[C@H]12,2.83 µM
17,COc1ccc(O)c(/C=N/NC(=S)Nc2cccnc2)c1,> 26 µM (inactive)
18,COc1ccc(NS(=O)(=O)c2cccc(NC(=O)c3ccc(S(=O)(=O)N4CCCCCC4)cc3)c2)cc1,> 26 µM (inactive)
19,O=C(Nc1ccccc1Cl)/C(Cl)=C(\Cl)S(=O)c1ccccc1 (centres undefined),> 26 µM (inactive)
20,O=C(NNc1c(Cl)cc(Cl)cc1Cl)c1cccc([N+](=O)[O-])c1,> 26 µM (inactive)
21,COc1cccc(/C=N/NC(=O)c2cc(-c3ccccn3)nc3ccccc23)c1O,> 26 µM (inactive)
22,Cc1[nH]n(-c2ccccc2)c(=O)c1N=Nc1c(O)cc(S(=O)(=O)N(C)C)c2ccccc12,> 26 µM (inactive)
23,CCOc1cc(N2CCOCC2)c(OCC)cc1NC(=O)COc1cccc2cccnc12,> 26 µM (inactive)

row,SMILES,AC50
1,Cc1ccc(-c2cn(-c3ccc(SC(F)F)cc3)c3[n+]2CCC3)cc1,> 26 µM (inactive)
2,Cc1ccc(-n2cccc2C(=S)N=P(N(C)C)(N(C)C)N(C)C)cc1,> 26 µM (inactive)
3,Cc1nc(C(=O)NNC(=O)c2c(-c3c(Cl)cccc3Cl)noc2C)cs1,> 26 µM (inactive)
4,CNc1nc(N)c([N+](=O)[O-])c(Nc2cccc(F)c2)n1,> 26 µM (inactive)
5,CC1=C(CO)C(=O)OC([C@@H](C)C2CC[C@H]3C4C[C@H]5O[C@]56[C@@H](O)C=CC(=O)[C@]6(C)C4CC[C@]23C)C1 (some centres undefined),> 26 µM (inactive)
6,CCOc1ccc(S(=O)(=O)N(C(=O)c2ccco2)c2cc3sc(=O)oc3c3ccccc23)cc1,> 26 µM (inactive)
7,Cc1ccc(N(CC(=O)Nc2cc(C)cc(C)c2)S(=O)(=O)c2c(C)noc2C)cc1,> 26 µM (inactive)
8,CC(C)(C)C(=O)Nc1ccc(C(=O)N/N=C/c2ccccc2OC(=O)c2ccc(Cl)cc2)cc1,> 26 µM (inactive)
9,O=C(N/N=C/c1cccnc1)c1ccc(NC(=O)C(c2ccccc2)c2ccccc2)cc1,> 26 µM (inactive)
10,O=[N+]([O-])c1c(Nc2ccc(O)cc2)cc(Cl)c2nonc12,> 26 µM (inactive)
11,CCN(CC)C(=O)c1ccc(S(=O)(=O)N2CCC(c3nc4ccccc4s3)CC2)cc1,> 26 µM (inactive)
12,Cc1nc2ccccc2c(=O)n1/N=C/c1c(O)ccc2ccccc12,> 26 µM (inactive)
13,CC(=O)c1cccc(NS(=O)(=O)c2ccc(N/C=C/C(=O)c3ccc(F)cc3)cc2)c1,> 26 µM (inactive)
14,N#CC(C#N)=C1C=CC=CN1/C(=C\c1ccco1)C(=O)c1ccc(Br)cc1,> 26 µM (inactive)
15,Nc1nc(F)nc2c1ncn2[C@@H]1O[C@H](CO)[C@@H](O)[C@H]1O,> 26 µM (inactive)
16,COc1ccc(C(=O)NN/C(C)=C/C(=O)C(F)(F)C(F)(F)C(F)(F)F)cc1,> 26 µM (inactive)
17,FC(F)(F)c1cnc(NNC(=S)Nc2ccccc2Cl)c(Cl)c1,> 26 µM (inactive)
18,CCN(CC)c1ccc(/C=N/NC(=O)c2c(Cl)cnn2C)c(O)c1,> 26 µM (inactive)
19,CCN1/C(=C/c2ccc3cc(C)ccc3[n+]2CC)Sc2ccc3sccc3c21,> 26 µM (inactive)
20,CNC[C@@H](CC1CCCCC1)NC[C@H](CC(C)C)NCCc1cccc(C(F)(F)F)c1,> 26 µM (inactive)
21,N#Cc1c([N+](=O)[O-])cc([N+](=O)[O-])cc1S(=O)(=O)Cc1ccccc1,> 26 µM (inactive)
22,Cc1ccc(-c2nc(NC(=O)c3nn(C)cc3[N+](=O)[O-])sc2C)cc1C,> 26 µM (inactive)
23,CCOC(=O)c1c(C)oc2c1C(=O)c1ccccc1C2=O,> 26 µM (inactive)

row,SMILES,AC50
1,CCCNC1=C(N(C(C)=O)c2cccc(F)c2)C(=O)c2ccccc2C1=O,> 26 µM (inactive)
2,CC1=C/C(=N\OS(=O)(=O)c2ccccc2)C(C)=CC1=O,> 26 µM (inactive)
3,Cc1ccc(NC(=O)C2=C(c3ccccc3)S(=O)(=O)CCS2(=O)=O)cc1,> 26 µM (inactive)
4,COc1ccc(OC)c(NC(=O)CN(Cc2ccc(F)cc2)C2CCCCC2)c1,> 26 µM (inactive)
5,COc1ccc(CCNc2ccc(C(CC(N)=O)NC(=O)c3ccc(Br)cc3)cc2[N+](=O)[O-])cc1 (centres undefined),> 26 µM (inactive)
6,Cc1cc(C)cc(OCC(O)CN2CCC(CN3C(=O)c4cccc5cccc(c45)C3=O)CC2)c1 (centres undefined),> 26 µM (inactive)
7,CC(=O)SC1CC(=O)N(c2c(C)cccc2C)C1=O (centres undefined),> 26 µM (inactive)
8,O=C(N/N=C/c1ccc[nH]1)c1ccc(COc2cccc3cccnc23)cc1,> 26 µM (inactive)
9,COc1cc(NC(=O)c2ccc([N+](=O)[O-])o2)ccc1NC(=O)c1cccs1,> 26 µM (inactive)
10,COc1ccc(C2/C=C\CN(C(=O)c3ccccc3)[C@H](Cc3ccccc3)C(=O)N2Cc2ccc(F)cc2)cc1 (some centres undefined),> 26 µM (inactive)
11,CN1/C(=C\C(=O)C[n+]2cccc(Br)c2)C(C)(C)c2ccccc21,> 26 µM (inactive)
12,Cc1ccc(-c2nc(NC(=O)c3nn(C)cc3[N+](=O)[O-])sc2C)cc1,> 26 µM (inactive)
13,O=[N+]([O-])c1ccc(/C=N/n2cnc3ccccc32)s1,> 26 µM (inactive)
14,CCCCNc1c(-c2ccc(SC3CCCCC3)cc2)nc2ccccn12,> 26 µM (inactive)
15,COc1ccc(-c2cc(-c3ccccc3)[n+](C)c(-c3ccccc3)c2)cc1,> 26 µM (inactive)
16,Oc1c(C(Nc2ccccn2)c2ccccn2)ccc2cccnc12 (centres undefined),> 12 µM (inactive)
17,CN(C)CCCNc1cc(C(C)(C)C)nc2c(-c3ccccc3)cnn12,> 26 µM (inactive)
18,CC(=O)CSc1ccc(-c2nc3ccccc3[nH]2)cn1,> 26 µM (inactive)
19,CN(C)c1ccc(-c2cc(O)c3ncccc3c2)cc1,> 26 µM (inactive)
20,Cc1ccc(C2=CC(c3ccc(N(C)C)cc3)n3nnnc3N2)cc1 (centres undefined),> 26 µM (inactive)
